{"source": "patent US20160030499A1", "about": "“Adaptogenic Compositions And Method For Production Thereof” (Rubikon Ltd., priority 2014, published 2016)", "test": "Storage stability of quantitated schisandrin (HPLC)", "format": "physicochemical", "text": "A high performance liquid chromatography (HPLC) method was developed to quantitate the schisandrin compound contained in the Schisandra chinensis extract. Schisandrin (≧98%) obtained from Sigma-Aldrich was used as a control. The content of the schisandrin compound in the Schisandra chinensis seed oil extracts ranged from about 4.2 to 4.9% depending on the extraction for example, prior to standardization.\nA High-performance liquid chromatography method has been developed to quantify the schisandrin in the extract:\nChromatographic Conditions: • Column: Agilent Zorbax Eclipse XDB-C 18, 150 mm length and 4.6 mm internal diameter filled with octadecylsilyl silica gel, 5 micron particle size; • Flow rate: 1 ml/min; • Detection at wavelength: 250 nm; • Volume of injection sample: 10 μl; • Column temperature: 25° C.", "data": [{"compound": "COc1cc2c(c(OC)c1OC)-c1c(cc(OC)c(OC)c1OC)C[C@](C)(O)[C@@H](C)C2", "note": "[schisandrin compound, schisandrin]", "values": [{"measurement": "Storage stability of quantitated amount of schisandrin", "setting": "12 months, 30 degrees Celsius and 65% relative humidity", "value": "stable and unchanged"}, {"measurement": "Storage stability of quantitated amount of schisandrin", "setting": "24 months, 25 degrees Celsius and 60% relative humidity", "value": "stable and unchanged"}, {"measurement": "Storage stability in other studies using the formulation tested in Example 1", "setting": "conditions not stated", "value": "stable for at least or about one year"}, {"measurement": "Storage stability of quantitated amount of schisandrin", "setting": "six months, 40 degrees Celsius and 75% relative humidity", "value": "stable and unchanged"}]}]}
